Test results published in patent US4977153A, “3-aminopropyloxyphenyl derivatives, pharmaceutical compositions containing them and method for the therapy of diseases” (Louis; William J., priority 1985, dated 1990).
Where two headings read alike, the source gives them in different places.

How the values were obtained:
[1] = tested on: resting heart rate in the pithed rat; experiment: intrinsic sympathomimetic activity: increase in resting heart rate in the pithed rat; type: in vivo; settings: maximum effect of cumulative doses of drug up to 3 mg/kg
[2] = target: T1, beta adrenoceptor (guinea pig atrium) (Cavia porcellus, UniProt H0W3H1); experiment: beta adrenoceptor blocking activity in the spontaneously beating guinea pig atrium (inhibition of positive chronotropic isoproterenol effect); type: cell-based
T1 construct: in the spontaneously beating guinea pig atrium; from tissue; host or cells: guinea pig atrium, spontaneously beating

[3] = target: T2, beta adrenoceptor (heart) (Rattus norvegicus, UniProt P18090); experiment: inhibition of isoproterenol-induced tachycardia in the pithed rat; type: in vivo; settings: read-out: Pithed Rat Effective Dose (ID50)
T2 construct: from tissue; host or cells: heart in the whole animal (pithed rat, in vivo)

[4] = target: T3, beta adrenoceptor (guinea pig trachea) (Cavia porcellus, UniProt Q8K4Z4); experiment: inhibition of isoproterenol-induced relaxation in guinea pig tracheal preparations (cardioselectivity); type: cell-based; settings: guinea pig trachea, in words
T3 construct: tracheal preparations of the guinea pig; from tissue; host or cells: guinea pig tracheal muscle

[5] = tested on: beta adrenoceptor (guinea pig trachea); experiment: as above; type: cell-based; settings: selectivity index, guinea pig trachea vs atrium
[6] = in words; cited from earlier work
[7] = tested on: resting heart rate in the pithed rat; settings: in words; cited from earlier work
[8] = dose which doubles the concentration of isoproterenol needed to elicit a 50% increase in heart rate, spontaneously beating guinea pig atrium, read-out: Guinea Pig Atrium, Effective Molar Dose (ID50)
[9] = inhibition of isoproterenol-induced tachycardia, pithed rat

T2 sequence (P18090 whole entry): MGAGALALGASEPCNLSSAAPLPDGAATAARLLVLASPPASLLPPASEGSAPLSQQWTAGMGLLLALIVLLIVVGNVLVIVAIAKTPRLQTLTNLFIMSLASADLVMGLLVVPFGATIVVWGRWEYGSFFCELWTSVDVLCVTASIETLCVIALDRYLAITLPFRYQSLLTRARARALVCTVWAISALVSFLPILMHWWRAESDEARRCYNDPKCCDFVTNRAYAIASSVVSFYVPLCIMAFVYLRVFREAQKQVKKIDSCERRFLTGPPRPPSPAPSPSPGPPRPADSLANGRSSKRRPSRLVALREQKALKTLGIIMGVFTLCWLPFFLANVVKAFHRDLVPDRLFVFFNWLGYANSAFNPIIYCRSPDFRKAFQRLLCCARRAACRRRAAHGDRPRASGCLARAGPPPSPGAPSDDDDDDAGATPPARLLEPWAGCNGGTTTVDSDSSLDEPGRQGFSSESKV
T1 sequence (H0W3H1 1-470): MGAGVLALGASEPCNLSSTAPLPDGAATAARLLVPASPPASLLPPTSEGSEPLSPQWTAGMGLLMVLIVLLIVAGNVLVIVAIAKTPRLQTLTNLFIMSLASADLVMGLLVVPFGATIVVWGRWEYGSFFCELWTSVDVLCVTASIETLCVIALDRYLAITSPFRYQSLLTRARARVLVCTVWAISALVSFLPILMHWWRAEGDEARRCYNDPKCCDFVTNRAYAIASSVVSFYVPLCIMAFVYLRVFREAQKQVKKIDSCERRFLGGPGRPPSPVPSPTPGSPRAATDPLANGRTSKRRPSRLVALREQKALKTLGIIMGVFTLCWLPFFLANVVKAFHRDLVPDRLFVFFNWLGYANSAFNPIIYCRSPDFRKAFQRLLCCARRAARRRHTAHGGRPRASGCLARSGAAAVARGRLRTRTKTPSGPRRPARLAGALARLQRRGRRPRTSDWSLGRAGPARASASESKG
T3 sequence (Q8K4Z4 whole entry): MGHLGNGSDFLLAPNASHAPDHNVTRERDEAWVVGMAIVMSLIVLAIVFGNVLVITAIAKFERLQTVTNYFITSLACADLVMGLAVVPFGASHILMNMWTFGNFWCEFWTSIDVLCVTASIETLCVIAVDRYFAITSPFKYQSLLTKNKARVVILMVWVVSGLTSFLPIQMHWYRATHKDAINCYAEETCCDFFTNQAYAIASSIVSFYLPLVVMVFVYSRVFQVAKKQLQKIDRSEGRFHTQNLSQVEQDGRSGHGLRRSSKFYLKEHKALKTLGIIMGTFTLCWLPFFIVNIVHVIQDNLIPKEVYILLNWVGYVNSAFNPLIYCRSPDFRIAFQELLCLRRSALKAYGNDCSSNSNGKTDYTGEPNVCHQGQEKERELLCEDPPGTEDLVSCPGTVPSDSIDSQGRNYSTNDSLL

SMILES	Maximum Change in Resting Heart Rate in the Pithed Rat [1]	Kb [2, 8] [nM]	ED50 [3, 9] [mg/kg]	other results
CC(C)NCC(O)COc1ccc(CC(N)=O)cc1 (stereo not drawn) [Atenolol, reference compound]	0			Kb [2]: 200 nM; ED50 ([3]; rat): 0.03 mg/kg; blocking actions of the isoproterenol response in the trachea [4]: significant blocking actions of the isoproterenol response in the trachea
CC(C)NCC(O)COc1ccc(CCOCC2CC2)cc1 (stereo not drawn) [Betaxolol, reference compound]	0			
CCCOCCOc1ccc(OCC(O)CNCCNC(=O)Nc2ccc3[nH]ccc3c2)c(C#N)c1 (stereo not drawn) [Example 1, N-[2-[3-[2-cyano-4-(2-propoxyethoxy)phenoxy]-2-hydroxypropylamino]-ethyl]-N'-(1H-indol-5-yl)-urea]	+101	3	0.002	selectivity (cardiac atrial vs tracheal) [5]: 17000
COCCOc1ccc(OCC(O)CNCCNC(=O)Nc2ccc3[nH]ccc3c2)c(C#N)c1 (stereo not drawn) [Example 6]		13		
CCCOCCOc1ccc(OCC(O)CNCCNC(=O)Cc2ccc3[nH]ccc3c2)c(C#N)c1 (stereo not drawn) [Example 9]		25		
CCCOCCOc1ccc(OCC(O)CNCCNC(=O)Cc2ccsc2)c(C#N)c1 (stereo not drawn) [Example 11]	+66	12		
CCCCOCCOc1ccc(OCC(O)CNCCNC(=O)Nc2ccc3[nH]ccc3c2)c(C#N)c1 (stereo not drawn) [Example 13]	+105			
N#Cc1cc(OCCOCCc2ccccc2)ccc1OCC(O)CNCCNC(=O)Nc1ccc2[nH]ccc2c1 (stereo not drawn) [Example 14]		10		
N#Cc1cc(OCCOCc2ccc(F)cc2)ccc1OCC(O)CNCCNC(=O)Nc1ccc2[nH]ccc2c1 (stereo not drawn) [Example 19]	+51	100	0.1	
CCCOCCOc1ccc(OCC(O)CNCCNC(=O)c2ccc3[nH]ccc3c2)c(C#N)c1 (stereo not drawn) [Example 20]		50		
O=C(NCCNCC(O)COc1ccc(OCCOCC2CC2)cc1)c1ccco1 (stereo not drawn) [Example 23]	+42		0.03	
CCCOCCOc1ccc(OCC(O)CNCCNC(=O)c2ccoc2)cc1 (stereo not drawn) [Example 28]			0.003	
CCCOCCOc1ccc(OCC(O)CN[C@H](C)CNC(=O)c2ccco2)cc1 (stereo partly drawn) [Example 29]		30	0.05	
CCCOCCOc1ccc(OCC(O)CN[C@H](C)CNC(=O)c2ccco2)c(F)c1 (stereo partly drawn) [Example 33]		8		
CC(C)NCC(O)COc1cccc2[nH]ccc12 (stereo not drawn) [Pindolol, reference compound]	+89			
CC(C)NCC(O)COc1cccc2ccccc12 (stereo not drawn) [Propranolol]	0			plasma cholesterol effect, known drug [6]: elevated plasma cholesterol; rebound hypersensitivity after cessation, known drug [6]: rebound hypersensitivity occurring after cessation; intrinsic sympathomimetic activity (ISA), known drug [7]: no ISA
